Data on eight molecules can be found in patent US7109333B2, “Heterocyclic compounds” (SmithKline Beecham Corporation, priority 1998, dated 2006).

Experiment [1] relates to N87 gastric tumor cell line. The experiment is described as follows: Methylene blue growth inhibition assay, N87. In kind it is cell-based. To be noted: Homo sapiens, 72 h; N87, 3 days; read-out: Cell Proliferation N87, IC50. As for the experimental part: (§1) Human breast (BT474), head and neck (HN5) and gastric tumor (N87) cell lines were cultured in low glucose DMEM (Life Technologies 12320–032) containing 10% fetal bovine serum (FBS) at 37° C. in a humidified 10% CO2, 90% air incubator. The SV40 transformed human mammary epithelial cell line HB4a was transfected with either human H-ras cDNA (HB4a r4.2) or the human c-erbB2 cDNA (HB4a c5.2). The HB4a clones were cultured in RPMI containing 10% FBS, insulin (5 μg/ml), hydrocortisone (5 μg/ml), supplemented with the selection agent hygromycin B (50 μg/ml). Cells were harvested using trypsin/EDTA, counted using a haemocytometer, and plated in […] of the appropriate media, at the following densities, in a 96-well tissue culture plate (Falcon 3075): BT474 10,000 cells/well, HN5 3,000 cells/well, N87 10,000 cells/well, HB4a c5.2 3,000 cells/well, HB4a r4.2 3,000 cells/well. The next day, compounds were diluted in DMEM containing […] gentamicin, at twice the final required concentration, from 10 mM stock solutions in DMSO. […] of these dilutions were added to the […] of media currently on the cell plates. Medium containing 0.6% DMSO was added to control wells. Compounds diluted in DMEM were added to all cell lines, including the HB4a r4.2 and HB4a c5.2 cell lines. The final concentration of DMSO in all wells was 0.3%. Cells were incubated at 37° C., 10% CO2 for 3 days. Medium was removed by aspiration. Cell biomass was estimated by staining cells with 100 μl per well methylene blue (Sigma M9140, 0.5% in 50:50 ethanol:water), and incubation at room temperature for at least 30 minutes. Stain was removed, and the plates rinsed under a gentle stream of water, and air-dried. To release stain from the cells 100 μl of solubilization solution was added (1% N-lauroyl sarcosine, Sodium salt, Sigma L5125, in PBS), and plates were shaken gently for about 30 minutes. Optical density at 620 nm was measured on a microplate reader. Percent inhibition of cell growth was calculated relative to vehicle treated control wells. Concentration of compound that inhibits 50% of cell growth (IC50) was interpolated using nonlinear regression (Levenberg-Marquardt) and the equation, y=Vmax*(1−(x/(K+x)))+Y2, where “K” was equal to the IC50.

In experiment [2] the test system is BT474 breast tumor cell line. The experiment is described as follows: Methylene blue growth inhibition assay, BT474. The experiment is classed as cell-based. To be noted: Homo sapiens, BT-474, 72 h; BT474, 3 days; read-out: Cell Proliferation BT474, IC50. The protocol:
as §1

Experiment [3] concerns HB4a c5.2 (HB4a transfected with human c-erbB2 cDNA). The experiment is described as follows: Methylene blue growth inhibition assay, HB4a erbB2. Conditions: 72 h, HB4a c5.2, 3 days, read-out: Cell Proliferation HB4a erbB2, IC50. In kind it is cell-based. The protocol: as §1
Experiment [4] deals with HB4a r4.2 (HB4a transfected with human H-ras cDNA). The experiment is described as follows: Methylene blue growth inhibition assay, HB4a ras. In kind it is cell-based. Conditions: 72 h, HB4a r4.2, 3 days, read-out: Cell Proliferation HB4a ras, IC50. The protocol:
as §1

In experiment [5] the test system is HN5 head and neck tumor cell line. The experiment can be described thus: Methylene blue growth inhibition assay, HN5. The experiment is classed as cell-based. To be noted: Homo sapiens, 72 h; HN5, 3 days; read-out: Cell Proliferation HN5, IC50. The protocol:
as §1

The target in another experiment is T1, c-erbB-2 (Homo sapiens, UniProt P04626).
T1 construct: baculovirus expressed, recombinant constructs of the intracellular domains of c-erbB-2 and c-erbB-4; made in house
T1 sequence (P04626 676-1255 limits assumed): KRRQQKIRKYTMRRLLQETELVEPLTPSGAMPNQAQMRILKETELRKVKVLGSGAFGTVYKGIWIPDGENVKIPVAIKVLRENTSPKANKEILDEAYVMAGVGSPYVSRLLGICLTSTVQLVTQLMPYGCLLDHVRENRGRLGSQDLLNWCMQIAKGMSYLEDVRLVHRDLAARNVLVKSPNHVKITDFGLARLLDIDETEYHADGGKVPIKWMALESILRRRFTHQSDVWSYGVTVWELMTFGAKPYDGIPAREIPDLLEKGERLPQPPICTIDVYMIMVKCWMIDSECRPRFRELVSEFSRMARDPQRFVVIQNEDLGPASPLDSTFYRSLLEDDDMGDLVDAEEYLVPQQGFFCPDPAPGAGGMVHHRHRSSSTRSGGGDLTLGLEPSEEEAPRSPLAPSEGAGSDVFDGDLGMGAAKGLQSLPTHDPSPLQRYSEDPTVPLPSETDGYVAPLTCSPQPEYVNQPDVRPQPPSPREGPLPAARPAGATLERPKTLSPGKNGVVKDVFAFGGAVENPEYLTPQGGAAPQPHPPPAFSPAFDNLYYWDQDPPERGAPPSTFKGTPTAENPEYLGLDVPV
The experiment can be described thus: Substrate phosphorylation assay, erbB2, assay (b) (SPA, 33P-ATP). The experiment is classed as biochemical. Conditions: Tables 1A and 1B. The source says:
The substrate phosphorylation assays use baculovirus expressed, recombinant constructs of the intracellular domains of c-erbB-2 and c-erbB-4 that are constitutively active and EGFr isolated from solubilised A431 cell membranes. The method measures the ability of the isolated enzymes to catalyse the transfer of the g-phosphate from ATP onto tyrosine residues in a biotinylated synthetic peptide (Biotin-[…]. Substrate phosphorylation was detected following either of the following two procedures: a.) c-ErbB-2, c-ErbB4 or EGFr were incubated for 30 minutes, at room temperature, with 10 mM MnCl2, 10 mM ATP, 5 mM peptide, and test compound (diluted from a 5 mM stock in DMSO, final DMSO concentration is 2%) in 40 mM HEPES buffer, pH 7.4. The reaction was stopped by the addition of EDTA (final concentration 0.15 mM) and a sample was transferred to a streptavidin-coated 96-well plate. The plate was washed and the level of phosphotyrosine on the peptide was determined using a Europium-labelled antiphosphotyrosine antibody and quantified with a time-resolved fluorescence technique. b.) ErbB2 was incubated for 50 minutes at room temperature with 15 mM MnCl2, 2 mM ATP, 0.25 mCi [γ-^33P] ATP/well, 5 mM peptide substrate, and test compound (diluted from a 10 mM stock in DMSO, final DMSO concentration is 2%) in 50 mM MOPS pH 7.2. The reaction was terminated by the addition of […] of PBS containing 2.5 mg/ml streptavidin-coated SPA beads (Amersham Inc.), 50 mM ATP, 10 mM EDTA and 0.1% TX-100. The microtitre plates were sealed and SPA beads were allowed to settle for at least six hours. The SPA signal was measured using a Packard Topcount 96-well plate scintillation counter (Packard Instrument Co., Meriden, Conn.).

pIC50: −log10 of the molar value. Counter-ions that a name gives are not always drawn.

Take `CS(=O)(=O)CCNCc1coc(-c2cc3c(Nc4ccc(OCc5cccc(F)c5)cc4)ncnc3cn2)c1` [Example 6, (4-(3-Fluorobenzyloxy)-phenyl)-(6-(4-((2-methanesulphonyl-ethylamino)-methyl)-furan-2-yl)-pyrido[3,4-d]pyrimidin-4-yl)-amine dihydrochloride]: the pIC50 is above 5.30 in experiment [1]; above 5.30 in experiment [2]; above 5.30 in experiment [3]; 4.30 to 4.60 in experiment [4]; above 5.30 in experiment [5]; 6.00 to 7.00 on c-erbB-2.

With `CS(=O)(=O)CCNCc1ccc(-c2ccc3ncnc(Nc4ccc(OCc5cccc(F)c5)cc4)c3c2)o1` [Example 8, N-{4-[(3-fluorobenzyl)oxy]phenyl}-6-[5-({[2-(methanesulphonyl)ethyl]amino}methyl)-2-furyl]-4-quinazolinamine], the pIC50 in experiment [1] is above 5.30; in experiment [2], above 5.30; in experiment [3], above 5.30; in experiment [4] it was 4.60 to 5.30; in experiment [5] it was above 5.30; at c-erbB-2, above 7.00.

In the case of `COc1cc(Nc2ncnc3ccc(-c4ccc(CNCCS(C)(=O)=O)o4)cc23)ccc1OCc1cccc(F)c1` [Example 9, N-{4-[(3-fluorobenzyl)oxy]-3-methoxyphenyl}-6-[5-({[2-(methanesulphonyl)ethyl]amino}methyl)-2-furyl]-4-quinazolinamine], the pIC50 is above 5.30 in experiment [1]; above 5.30 in experiment [2]; above 5.30 in experiment [3]; 4.60 to 5.30 in experiment [4]; above 5.30 in experiment [5].

As to `COc1cc2ncnc(Nc3ccc(OCc4ccccc4)cc3)c2cc1-c1ccc(CNCCS(C)(=O)=O)o1` [Example 10], the pIC50 is above 5.30 in experiment [1]; above 5.30 in experiment [2]; above 5.30 in experiment [3]; 4.60 to 5.30 in experiment [4]; above 5.30 in experiment [5]; above 7.00 against c-erbB-2.

As for `CS(=O)(=O)CCNCc1coc(-c2ccc3ncnc(Nc4ccc(OCc5ccccc5)cc4)c3c2)c1` [Example 11, N-[4-(benzyloxy)phenyl]-6-[4-({[2-(methanesulphonyl)ethyl]amino}methyl)-2-furyl]-4-quinazolinamine], the pIC50 in experiment [1] is above 5.30; in experiment [2], above 5.30; in experiment [3] it was above 5.30; in experiment [4], below 4.30; in experiment [5], above 5.30; against c-erbB-2, above 7.00.

On to `COc1cc(Nc2ncnc3ccc(-c4csc(CNCCS(C)(=O)=O)n4)cc23)ccc1OCc1cccc(F)c1` [Example 12, N-{4-[(3-fluorobenzyl)oxy]-3-methoxyphenyl}-6-[2-({[2-(methanesulphonyl)ethyl]amino}methyl)-1,3-thiazol-4-yl]-4-quinazolinamine], for which the pIC50 was above 5.30 in experiment [1]; above 5.30 in experiment [2]; above 5.30 in experiment [3]; below 4.30 in experiment [4]; 4.60 to 5.30 in experiment [5]; 6.00 to 7.00 on c-erbB-2.

As for `CS(=O)(=O)CCNCc1nc(-c2ccc3ncnc(Nc4ccc(OCc5cccc(Br)c5)cc4)c3c2)cs1` [Example 13, N-{4-[(3-bromobenzyl)oxy]phenyl}-6-[2-({[2-(methanesulphonyl)ethyl]amino}methyl)-1,3-thiazol-4-yl]-4-quinazolinamine], the pIC50 in experiment [1] was 4.60 to 5.30; in experiment [2], 4.60 to 5.30; in experiment [3] it was 4.60 to 5.30; in experiment [4], below 4.30; in experiment [5], 4.30 to 4.60; at c-erbB-2, 6.00 to 7.00.

Take `CS(=O)(=O)CCNCc1ccc(-c2ccc3ncnc(Nc4ccc(OCc5cccc(F)c5)c(Cl)c4)c3c2)o1` [Example 29, N-{3-Chloro-4-[(3-fluorobenzyl)oxy]phenyl}-6-[5-({[2-(methanesulphonyl)ethyl]amino}methyl)-2-furyl]-4-quinazolinamine]: the pIC50 in experiment [1] was above 5.30; in experiment [2] it was above 5.30; in experiment [3], above 5.30; in experiment [4], below 4.30; in experiment [5], above 5.30.
